Marks after values point to notes of the source that are not given here.
Assays:
Format in all cases: in vivo, rat
TNF-α [1] = assay: TNF-α immunostaining of colonic sections
Method: Chronic colitis was induced by weekly rectal injections of increasing doses of TNBS over 6 weeks (15, 30, 45, 60, 60, and 60 mg from day 0 to day 35), as previously described (4,12). Briefly, after food deprivation for 24 h, rats were anesthetized with an intraperitoneal injection of 1% isoflurane. TNBS was dissolved in ethanol (50%) and instilled into the colon using a cannula (0.25 mL), and then the rats were held upside down for 3 min to prevent escape of the intracolonic TNBS. Roflumilast was dissolved in dimethyl sulfoxide and diluted in 0.5% carboxymethyl cellulose sodium to a final concentration of 5.0 mg·kg^−1·day^−1 as previously described (13). Five groups of rats (n=8) were established: normal control (NC group), TNBS-treated (TNBS group, positive control), and three TNBS-treated groups that received oral sulfasalazine (SS group, 500 mg/kg) (14), oral roflumilast (by gastric gavage, OR group, 5 mg/kg), or rectal roflumilast (RR group, 5 mg/kg). Treatments were administered once daily in a volume of 200 μL for 15 days starting 48 h after the induction of colitis (from day 37) (15), and the control rats received equal amounts of vehicle. At the end of the treatment period, the rats were evaluated with the colitis activity score. To detect the effects of the treatments on systemic inflammatory processes, blood was collected for measurements of the proinflammatory mediators TNF-α, IL-2, and IL-6. At the end of the 15-day treatment period, the rats were sacrificed by cervical dislocation, and the colon was isolated, cleaned of feces, and measured for weight and length. Colonic myeloperoxidase (MPO) activity and glutathione (GSH) and malonaldehyde (MDA) levels were measured. The colon was examined macroscopically for gross changes and microscopically in sections stained with hematoxylin and eosin (H&E), Masson trichrome, and Periodic Acid Schiff (PAS) stains as well as KI-67 and TNF-α immunostaining. […] This primary antibody was detected using avidin-biotin peroxidase detection solution (Dako), and the signal was visualized using diaminobenzidine. […]

IL-2 = assay: Serum IL-2 ELISA in TNBS-induced colitis; details: means±SE, n = 8
Method: (§1) Chronic colitis was induced by weekly rectal injections of increasing doses of TNBS over 6 weeks (15, 30, 45, 60, 60, and 60 mg from day 0 to day 35), as previously described (4,12). Briefly, after food deprivation for 24 h, rats were anesthetized with an intraperitoneal injection of 1% isoflurane. TNBS was dissolved in ethanol (50%) and instilled into the colon using a cannula (0.25 mL), and then the rats were held upside down for 3 min to prevent escape of the intracolonic TNBS. Roflumilast was dissolved in dimethyl sulfoxide and diluted in 0.5% carboxymethyl cellulose sodium to a final concentration of 5.0 mg·kg^−1·day^−1 as previously described (13). Five groups of rats (n=8) were established: normal control (NC group), TNBS-treated (TNBS group, positive control), and three TNBS-treated groups that received oral sulfasalazine (SS group, 500 mg/kg) (14), oral roflumilast (by gastric gavage, OR group, 5 mg/kg), or rectal roflumilast (RR group, 5 mg/kg). Treatments were administered once daily in a volume of 200 μL for 15 days starting 48 h after the induction of colitis (from day 37) (15), and the control rats received equal amounts of vehicle. At the end of the treatment period, the rats were evaluated with the colitis activity score. To detect the effects of the treatments on systemic inflammatory processes, blood was collected for measurements of the proinflammatory mediators TNF-α, IL-2, and IL-6. At the end of the 15-day treatment period, the rats were sacrificed by cervical dislocation, and the colon was isolated, cleaned of feces, and measured for weight and length. Colonic myeloperoxidase (MPO) activity and glutathione (GSH) and malonaldehyde (MDA) levels were measured. The colon was examined macroscopically for gross changes and microscopically in sections stained with hematoxylin and eosin (H&E), Masson trichrome, and Periodic Acid Schiff (PAS) stains as well as KI-67 and TNF-α immunostaining. Blood was collected through cardiac puncture. The serum was obtained and stored at −80° C. until analysis. […]

TNF-α [2] = assay: Serum TNF-α ELISA in TNBS-induced colitis; details: means±SE, n = 8
Method: as §1

[3] = oral, once daily for 15 days, sulfasalazine 500 mg/kg, roflumilast 5 mg/kg
[4] = rectal, 5 mg/kg once daily for 15 days
[5] = oral, once daily for 15 days, SS 500 mg/kg, OR 5 mg/kg

Structure (SMILES) | TNF-α immunoexpression in the mucosa (TNF-α [1]; [3]) | TNF-α immunoexpression in the mucosa (TNF-α [1]; [4]) | serum level of IL-2 (IL-2; [5]) | serum level of IL-2 (IL-2; [4]) | serum level of TNF-α (TNF-α [2]; [5]) | serum level of TNF-α (TNF-α [2]; [4])
O=C(Nc1c(Cl)cncc1Cl)c1ccc(OC(F)F)c(OCC2CC2)c1 [roflumilast] | moderately positive reactions | strong positive reactions | 302.75 ± 11.32^g, h, i pg/mL | 363.87 ± 12.73^g pg/mL | 38.87 ± 2.33^a, b, f pg/mL | 79.37 ± 1.88^a, c, e pg/mL
O=C(O)c1cc(/N=N/c2ccc(S(=O)(=O)Nc3ccccn3)cc2)ccc1O [sulfasalazine] | very faint positive reactions | – | 257.97 ± 7.72^g pg/mL | – | 28.93 ± 0.5^b, d pg/mL | –
